Here are results for 20 compounds from article PMC4506529 (Chemmedchem, 2014).

Some results are limits rather than exact numbers.

Test [1] deals with human C-terminal DNMT3A (a.a. 623-908) (Homo sapiens, UniProt Q9Y6K1). Briefly: DNMT3A restriction-based fluorescence enzyme inhibition assay. In kind it is biochemical. The note with it: for inhibition at 20 µM / inhibition at 10 µM / inhibition at 32 µM: read-out: Inhibition [%] of DNMT3A catalytic activity; for Inhibition [%] of DNMT3A catalytic activity: mean±SEM where given, otherwise single determination.
Sequence of human C-terminal DNMT3A (a.a. 623-908) (Q9Y6K1 627-912): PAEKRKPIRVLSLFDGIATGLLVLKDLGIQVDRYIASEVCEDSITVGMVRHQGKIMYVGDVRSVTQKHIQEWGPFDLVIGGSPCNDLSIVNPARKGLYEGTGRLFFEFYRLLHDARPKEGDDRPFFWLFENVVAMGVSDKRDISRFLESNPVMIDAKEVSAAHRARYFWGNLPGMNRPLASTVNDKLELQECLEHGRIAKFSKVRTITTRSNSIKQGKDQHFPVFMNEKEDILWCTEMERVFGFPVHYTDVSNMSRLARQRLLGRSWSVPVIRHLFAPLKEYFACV

The subject of test [2] is luciferase reporter under control of methylated CMV promoter in KG-1 cells. Briefly: CMV-luc reexpression in KG-1 cells. Format: cell-based, human. The note with it: 24 h; for Fold reactivation of luciferase (CMV-luc): vs untreated cells, mean±SEM.
In the next test the test system is DNMT1. To be noted: compared with SGI-1027; cited from earlier work.
Another test concerns the target hDNMT1 (Homo sapiens, UniProt P26358). Kind of test: DNMT1 [methyl-3H]SAM FlashPlate assay. Format: biochemical.
For test [3], the target named is T1, histone lysine methyltransferases G9a (Homo sapiens, UniProt Q96KQ7).
T1 sequence (Q96KQ7 1-1210): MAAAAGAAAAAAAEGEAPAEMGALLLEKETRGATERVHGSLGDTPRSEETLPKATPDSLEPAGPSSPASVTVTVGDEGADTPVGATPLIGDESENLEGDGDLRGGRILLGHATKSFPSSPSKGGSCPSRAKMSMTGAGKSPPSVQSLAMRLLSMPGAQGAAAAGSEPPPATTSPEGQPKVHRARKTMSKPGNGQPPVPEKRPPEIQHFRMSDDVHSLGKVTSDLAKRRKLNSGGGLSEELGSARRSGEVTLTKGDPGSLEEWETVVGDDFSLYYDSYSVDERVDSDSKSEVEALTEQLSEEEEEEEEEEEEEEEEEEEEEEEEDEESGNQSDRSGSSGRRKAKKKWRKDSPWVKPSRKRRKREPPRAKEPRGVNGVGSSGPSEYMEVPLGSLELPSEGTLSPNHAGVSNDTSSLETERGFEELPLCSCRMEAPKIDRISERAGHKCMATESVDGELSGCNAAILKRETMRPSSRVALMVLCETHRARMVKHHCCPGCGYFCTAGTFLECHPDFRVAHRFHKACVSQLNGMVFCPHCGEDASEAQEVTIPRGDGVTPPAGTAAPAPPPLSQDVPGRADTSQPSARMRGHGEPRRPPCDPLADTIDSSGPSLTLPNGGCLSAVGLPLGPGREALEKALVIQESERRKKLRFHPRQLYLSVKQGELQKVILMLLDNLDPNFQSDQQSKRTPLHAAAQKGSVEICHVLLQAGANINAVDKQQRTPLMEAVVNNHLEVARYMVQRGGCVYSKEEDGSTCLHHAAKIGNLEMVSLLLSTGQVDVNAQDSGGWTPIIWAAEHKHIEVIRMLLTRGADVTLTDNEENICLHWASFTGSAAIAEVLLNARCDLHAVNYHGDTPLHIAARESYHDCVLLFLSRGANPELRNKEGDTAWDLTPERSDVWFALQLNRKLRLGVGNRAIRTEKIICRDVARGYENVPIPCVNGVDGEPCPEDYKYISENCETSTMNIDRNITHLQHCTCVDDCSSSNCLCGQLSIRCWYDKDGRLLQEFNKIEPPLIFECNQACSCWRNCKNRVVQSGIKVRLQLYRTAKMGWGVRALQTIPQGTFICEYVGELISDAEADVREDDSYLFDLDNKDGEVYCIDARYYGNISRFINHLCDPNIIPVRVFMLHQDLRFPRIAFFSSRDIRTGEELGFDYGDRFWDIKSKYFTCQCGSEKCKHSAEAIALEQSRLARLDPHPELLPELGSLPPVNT
Briefly: G9A inhibition assay. Format: biochemical.

Sequence of hDNMT1 (P26358 whole entry): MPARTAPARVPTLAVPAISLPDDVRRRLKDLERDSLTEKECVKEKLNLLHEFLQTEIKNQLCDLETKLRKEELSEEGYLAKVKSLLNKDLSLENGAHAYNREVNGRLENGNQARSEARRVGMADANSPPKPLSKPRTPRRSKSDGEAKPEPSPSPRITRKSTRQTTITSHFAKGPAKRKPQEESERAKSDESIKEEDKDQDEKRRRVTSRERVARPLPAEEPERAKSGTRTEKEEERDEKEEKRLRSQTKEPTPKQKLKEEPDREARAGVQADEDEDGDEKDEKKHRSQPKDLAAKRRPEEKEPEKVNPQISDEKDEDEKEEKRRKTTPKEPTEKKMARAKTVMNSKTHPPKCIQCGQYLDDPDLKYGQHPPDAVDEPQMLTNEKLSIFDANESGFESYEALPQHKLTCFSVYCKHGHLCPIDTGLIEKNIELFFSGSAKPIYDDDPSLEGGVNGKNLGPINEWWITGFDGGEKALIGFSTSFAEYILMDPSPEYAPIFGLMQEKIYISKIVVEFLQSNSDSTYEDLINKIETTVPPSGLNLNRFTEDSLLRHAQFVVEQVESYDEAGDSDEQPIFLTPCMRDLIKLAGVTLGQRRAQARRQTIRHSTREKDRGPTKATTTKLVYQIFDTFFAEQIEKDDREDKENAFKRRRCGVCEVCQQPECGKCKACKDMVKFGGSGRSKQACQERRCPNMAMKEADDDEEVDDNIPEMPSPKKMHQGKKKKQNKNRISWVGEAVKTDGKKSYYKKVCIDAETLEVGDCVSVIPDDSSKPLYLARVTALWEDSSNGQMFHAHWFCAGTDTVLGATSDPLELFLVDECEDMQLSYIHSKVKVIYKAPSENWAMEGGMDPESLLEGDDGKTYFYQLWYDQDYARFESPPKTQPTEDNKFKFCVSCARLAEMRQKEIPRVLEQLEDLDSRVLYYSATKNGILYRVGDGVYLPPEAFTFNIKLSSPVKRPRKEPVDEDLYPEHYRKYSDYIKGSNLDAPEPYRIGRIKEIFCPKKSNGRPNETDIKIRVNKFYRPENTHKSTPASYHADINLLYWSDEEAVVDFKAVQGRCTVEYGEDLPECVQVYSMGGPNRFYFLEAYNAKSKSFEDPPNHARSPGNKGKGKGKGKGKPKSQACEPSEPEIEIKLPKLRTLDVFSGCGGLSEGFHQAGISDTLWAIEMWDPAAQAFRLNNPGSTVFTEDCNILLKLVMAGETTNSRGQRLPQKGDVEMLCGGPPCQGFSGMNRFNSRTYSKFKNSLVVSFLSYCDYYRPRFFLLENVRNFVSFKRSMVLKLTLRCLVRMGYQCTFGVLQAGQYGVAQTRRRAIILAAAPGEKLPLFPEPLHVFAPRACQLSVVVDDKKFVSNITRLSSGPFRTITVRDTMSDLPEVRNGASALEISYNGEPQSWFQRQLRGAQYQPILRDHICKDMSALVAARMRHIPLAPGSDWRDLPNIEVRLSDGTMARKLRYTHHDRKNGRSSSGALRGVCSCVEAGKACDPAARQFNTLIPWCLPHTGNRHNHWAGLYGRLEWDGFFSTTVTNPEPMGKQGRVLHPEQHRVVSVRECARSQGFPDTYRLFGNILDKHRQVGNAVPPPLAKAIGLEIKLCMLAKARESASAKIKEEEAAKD

On to `Cc1cc(Nc2ccc(NC(=O)c3ccc([N+](=O)[O-])cc3)cc2)nc(N)n1` [Compound 8, N-[4-(2-Amino-6-methylpyrimidin-4-ylamino)phenyl]-4-nitrobenzamide], for which, in test [1], the inhibition at 20 µM turned out to be 1%.
On the same count and under the same terms, in the case of `Cc1cc(Nc2ccc(NC(=O)c3ccc(N)cc3)cc2)nc(N)n1` [Compound 9, N-[4-(2-Amino-6-methylpyrimidin-4-ylamino)phenyl]-4-aminobenzamide] it was 0%.
In the case of `Cc1cc(Nc2ccc(NC(=O)c3ccc(Nc4ccncc4)cc3)cc2)nc(N)n1` [Compound 10, N-[4-(2-Amino-6-methylpyrimidin-4-ylamino)phenyl]-4-(pyridin-4-ylamino)benzamide], in test [1], the concentration giving a half-maximal response (EC50) is 13 µM, the inhibition at 10 µM is 32% and the inhibition at 32 µM is 91 ± 4%.
Turning to `Cc1cc(Nc2ccc(NC(=O)c3ccc(Nc4ncccn4)cc3)cc2)nc(N)n1` [Compound 11, N-[4-(2-Amino-6-methylpyrimidin-4-ylamino)-phenyl]-4-(pyrimidin-2-ylamino)benzamide], in test [1], the inhibition at 10 µM turned out to be 17% and the inhibition at 32 µM was determined as 65 ± 3%.
Taken in the same sequence, the figures for `COc1nc(Nc2ccc(C(=O)Nc3ccc(Nc4cc(C)nc(N)n4)cc3)cc2)nc(OC)n1` [Compound 13, N-[4-(2-Amino-6-methylpyrimidin-4-ylamino)phenyl]-4-(4,6-dimethoxy-1,3,5-triazin-2-ylamino)benzamide] were 36% and 35%.
Consider `Cc1cc(Nc2ccc(NC(=O)c3ccc(Nc4ncnc5ccccc45)cc3)cc2)nc(N)n1` [Compound 14, N-[4-(2-Amino-6-methylpyrimidin-4-ylamino)phenyl]-4-(quinazolin-4-ylamino)benzamide], for which, in test [1], the inhibition at 10 µM stood at 25% and the inhibition at 32 µM came to 19%.
With `Cc1cc(Nc2ccc(NC(=O)c3ccc(Nc4ncnc5cc(F)ccc45)cc3)cc2)nc(N)n1` [Compound 15, N-[4-(2-Amino-6-methylpyrimidin-4-ylamino)phenyl]-4-(7-fluoroquinazolin-4-ylamino)benzamide], in test [1], the inhibition at 10 µM was determined as 19% and the inhibition at 32 µM came to 6%.
Regarding `Cc1cc(Nc2ccc(NC(=O)c3ccc(Nc4cc(-c5ccccc5)nc5ccccc45)cc3)cc2)nc(N)n1` [Compound 16, N-[4-(2-Amino-6-methylpyrimidin-4-ylamino)phenyl]-4-(2-phenylquinolin-4-ylamino)benzamide], the EC50 in test [1] amounted to 1.6 µM. Further, in test [1], the inhibition at 10 µM came to 81 ± 5%. Also, the inhibition at 32 µM in test [1] was found to be 55 ± 10%. Also, the “Fold reactivation of luciferase (CMV-luc)” value (“Fold reactivation” for short) in test [2] (0.1 μM) was determined as 1.0±0.1 fold; in test [2] (1 μM) it was 1.3±0.1 fold; in test [2] (3.2 μM), 5.5±1.3 fold; in test [2] (5 μM), 6.0±2.0 fold; in test [2] (10 μM), 6.1±2.7 fold.
`Cc1cc(Nc2ccc(NC(=O)c3ccc(Nc4ncnc5nc[nH]c45)cc3)cc2)nc(N)n1` [Compound 17, N-[4-(2-Amino-6-methylpyrimidin-4-ylamino)phenyl]-4-(7H-purin-6-ylamino)benzamide]: in test [1], the inhibition at 10 µM came to 8% and the inhibition at 20 µM turned out to be 3%.
For `CNc1ccc(C(=O)Nc2ccc(Nc3cc(C)nc(N)n3)cc2)cc1` [Compound 23, N-[4-(2-Amino-6-methylpyrimidin-4-ylamino)phenyl]-4-(methylamino)benzamide] the same measures were 0% and 0%.
Regarding `Cc1cc(Nc2ccc(C(=O)Nc3ccc(Nc4ccnc5ccccc45)cc3)cc2)nc(N)n1` [Compound 30, N-[4-(Quinolin-4-ylamino)phenyl]-4-(2-amino-6-methylpyrimidin-4-ylamino)benzamide], in test [1], the inhibition at 10 µM was 56 ± 11% and the inhibition at 32 µM is 47 ± 1%. The “DNMT1 degradation (in words)” value with DNMT1 is reported as “lower efficiency on DNMT1 degradation than SGI-1027”.
On to `O=C(Nc1ccc(Nc2ccnc3ccccc23)cc1)c1ccc(Nc2ccncc2)cc1` [Compound 31, N-[4-(Quinolin-4-ylamino)phenyl]-4-(pyridin-4-ylamino)benzamide], for which the EC50 in test [1] was determined as 0.9 µM; on hDNMT1, 15 ± 3 µM. Besides, in test [1] (maximal efficacy of the dose–response curve), the “efficacy of hDNMT3A inhibition” value was 90%. Besides, in test [1], the inhibition at 10 µM is 73 ± 3%. In addition, the inhibition at 32 µM in test [1] came to 75 ± 8%. The compound further yielded an IC50 in test [3] of 28 ± 4 µM. Besides, the “Fold reactivation” value in test [2] (0.1 μM) came to 1.1±0.1 fold; in test [2] (0.32 μM), 1.3±0.2 fold; in test [2] (0.5 μM) it was 1.6±0.3 fold; in test [2] (1 μM), 2.0±0.2 fold; in test [2] (3.2 μM), 3.9±0.3 fold; in test [2] (5 μM), 3.9±0.1 fold. For the same compound, the “Fold reactivation” value in test [2] (10 μM) was 3.2±0.5 fold. The “concentration from which luciferase expression was reactivated” value in test [2] is at least 1 µM.
For `Nc1cc(Nc2ccc(C(=O)Nc3ccc(Nc4ccnc5ccccc45)cc3)cc2)nc(N)n1` [Compound 32, N-[4-(Quinolin-4-ylamino)phenyl]-4-(2,6-diaminopyrimidin-4-ylamino)benzamide], in test [1] (plateau between 32 and 1 μM, no dose–response curve (data not shown)), the “plateau of DNMT3A inhibition” value is given as 50%. Also, in test [1], the inhibition at 10 µM is 53 ± 8% and the inhibition at 32 µM was 53 ± 13%.
As to `O=C(Nc1ccc(Nc2ccnc3ccccc23)cc1)c1ccc(Nc2cc(-c3ccccc3)nc3ccccc23)cc1` [Compound 33, N-[4-(Quinolin-4-ylamino)phenyl]-4-(2-phenylquinolin-4-ylamino)benzamide], in test [1], the inhibition at 10 µM is 29% and the inhibition at 32 µM turned out to be 46%.
Taken in the same sequence, the figures for `O=C(Nc1ccc(Nc2ccncc2)cc1)c1ccc(Nc2ccncc2)cc1` [Compound 36, N-[4-(Pyridin-4-ylamino)phenyl]-4-(pyridin-4-ylamino)benzamide] were 18% and 54 ± 5%.
For `O=C(Nc1ccc(Nc2ccnc3ccccc23)cc1)c1ccc(Nc2ccnc3ccccc23)cc1` [Compound 37, N-[4-(Quinolin-4-ylamino)phenyl]-4-(quinolin-4-ylamino)benzamide] the same measures were 39% and 29%.
Taken in the same sequence, the figures for `O=C(Nc1ccc(Nc2c3ccccc3nc3ccccc23)cc1)c1ccc(Nc2c3ccccc3nc3ccccc23)cc1` [Compound 38, N-[4-(Acridin-9-ylamino)phenyl]-4-(acridin-9-ylamino)benzamide] were 48 ± 8% and 62 ± 22%.
On to `Cc1cc(Nc2ccc(NC(=O)c3ccc(Nc4ccnc5ccccc45)cc3)cc2)nc(N)n1` [SGI-1027, N-(4-(2-amino-6-methylpyrimidin-4-ylamino)phenyl)-4-(quinolin-4-ylamino)benzamide, reference compound], for which, in test [1], the inhibition at 10 µM worked out at 74 ± 5% and the inhibition at 32 µM is 76 ± 5%.
For the compound “N-[4-(2-Amino-6-methylpyrimidin-4-ylamino)-phenyl]-4-(pyridin-4-ylmethylamino)benzamide [Compound 25]”, the “Inhibition [%] of DNMT3A catalytic activity” value is recorded as 0% in test [1] (10 μM compound) and 4% in test [1] (32 μM compound).
As to “N-[4-(2-Amino-6-methylpyrimidin-4-ylamino)phenyl]-4-(pyridin-3-ylmethylamino)benzamide [Compound 24]”, in test [1] (10 μM compound), the “Inhibition [%] of DNMT3A catalytic activity” value is 0%.

By inhibition is commonly meant the drop in the measured response relative to a control, in per cent. The term EC50 denotes the concentration needed to bring the measured effect to its halfway point. What is called IC50 is the concentration that inhibits the measured activity by half. The low end stands for greater potency in that assay, the high end for weaker potency in that assay.
